Laboratory results published in ChEMBL document CHEMBL5696441 (Nat Chem Biol, 2011).

Key:
[1] = target: Mitogen-activated protein kinase 10 (Homo sapiens) (UniProt P53779); assay: Inhibition of JNK3 (unknown origin) assessed as remaining activity at 1 uM by Kinome scan method relative to control
[2] = target: MAP kinase-activated protein kinase 5 (Homo sapiens) (UniProt Q8IW41); assay: Inhibition of MAPKAPK5 (unknown origin) assessed as remaining activity at 1 uM by Kinome scan method relative to control
[3] = target: Serine/threonine-protein kinase 3 (Homo sapiens) (UniProt Q13188); assay: Inhibition of MST2 (unknown origin) assessed as remaining activity at 1 uM by Kinome scan method relative to control
[4] = target: Serine/threonine-protein kinase NIM1 (Homo sapiens) (UniProt Q8IY84); assay: Inhibition of NIM1 (unknown origin) assessed as remaining activity at 1 uM by Kinome scan method relative to control
[5] = target: Serine/threonine-protein kinase N1 (Homo sapiens) (UniProt Q16512); assay: Inhibition of PKN1 (unknown origin) assessed as remaining activity at 1 uM by Kinome scan method relative to control
[6] = target: Serine/threonine-protein kinase D2 (Homo sapiens) (UniProt Q9BZL6); assay: Inhibition of PRKD2 (unknown origin) assessed as remaining activity at 1 uM by Kinome scan method relative to control
[7] = target: Serine/threonine-protein kinase ULK2 (Homo sapiens) (UniProt Q8IYT8); assay: Inhibition of ULK2 (unknown origin) assessed as remaining activity at 1 uM by Kinome scan method relative to control
[8] = test system: Tyrosine-protein kinase ABL1 (Homo sapiens), P00519 [H396P]; assay: Inhibition of human ABL1 H396P mutant assessed as residual activity at 1 uM using Poly(Ala,Glu,Lys,Tyr)6:2:5:1 as substrate in presence of 33P-ATP by ProQinase assay relative to control
[9] = target: Tyrosine-protein kinase Blk (Homo sapiens) (UniProt P51451); assay: Inhibition of human BLK assessed as residual activity at 1 uM using polyEY as substrate in presence of 33P-ATP by ProQinase assay relative to control
[10] = test system: Serine/threonine-protein kinase B-raf (Homo sapiens), P15056 [V600E]; assay: Inhibition of human BRAF V600E mutant assessed as residual activity at 1 uM using MEK1-K97M as substrate in presence of 33P-ATP by ProQinase assay relative to control
[11] = target: CDK4/Cyclin D3 (Homo sapiens) (UniProt P11802+P30281); assay: Inhibition of human CDK4/CycD3 assessed as residual activity at 1 uM using RBER-CHKtide as substrate in presence of 33P-ATP by ProQinase assay relative to control; assay type: protein-complex assay
[12] = target: Dual specificity protein kinase CLK4 (Homo sapiens) (UniProt Q9HAZ1); assay: Inhibition of human CLK4 assessed as residual activity at 1 uM using MBP as substrate in presence of 33P-ATP by ProQinase assay relative to control
[13] = test system: Epidermal growth factor receptor (Homo sapiens), P00533 [T790M]; assay: Inhibition of human EGFR T790M mutant assessed as residual activity at 1 uM using PolyEY as substrate in presence of 33P-ATP by ProQinase assay relative to control
[14] = target: Receptor tyrosine-protein kinase erbB-4 (Homo sapiens) (UniProt Q15303); assay: Inhibition of human ERBB4 assessed as residual activity at 1 uM using polyEy as substrate in presence of 33P-ATP by ProQinase assay relative to control
[15] = target: Homeodomain-interacting protein kinase 1 (Homo sapiens) (UniProt Q86Z02); assay: Inhibition of human HIPK1 assessed as residual activity at 1 uM using RBER-CHKtide as substrate in presence of 33P-ATP by ProQinase assay relative to control
[16] = target: Leucine-rich repeat serine/threonine-protein kinase 2 (Homo sapiens) (UniProt Q5S007); assay: Inhibition of human LRRK2 assessed as residual activity at 1 uM using RBER-GSK3(14-27) as substrate in presence of 33P-ATP by ProQinase assay relative to control
[17] = target: Serine/threonine-protein kinase Nek6 (Homo sapiens) (UniProt Q9HC98); assay: Inhibition of human NEK6 assessed as residual activity at 1 uM using RBER-GSK3 as substrate in presence of 33P-ATP by ProQinase assay relative to control
[18] = target: Serine/threonine-protein kinase N2 (Homo sapiens) (UniProt Q16513); assay: Inhibition of human PRK2 assessed as residual activity at 1 uM using RBER-CHKtide as substrate in presence of 33P-ATP by ProQinase assay relative to control
[19] = target: Ribosomal protein S6 kinase beta-1 (Homo sapiens) (UniProt P23443); assay: Inhibition of human S6K1 assessed as residual activity at 1 uM using RBER-GSK3(14-27) as substrate in presence of 33P-ATP by ProQinase assay relative to control
[20] = target: Serine/threonine-protein kinase PLK2 (Homo sapiens) (UniProt Q9NYY3); assay: Inhibition of human SNK assessed as residual activity at 1 uM using RBER-GSK3(14-27) as substrate in presence of 33P-ATP by ProQinase assay relative to control
[21] = target: Vascular endothelial growth factor receptor 2 (Homo sapiens) (UniProt P35968); assay: Inhibition of human VEGFR2 assessed as residual activity at 1 uM using polyEY as substrate in presence of 33P-ATP by ProQinase assay relative to control
CYP3A4 = CYP3A4 (Homo sapiens, UniProt P08684); assay: Inhibition of CYP3A4 (unknown origin) at 10 uM relative to control; assay type: ADME

Sequence of MAP kinase-activated protein kinase 5 (Homo sapiens) (Q8IW41 whole entry): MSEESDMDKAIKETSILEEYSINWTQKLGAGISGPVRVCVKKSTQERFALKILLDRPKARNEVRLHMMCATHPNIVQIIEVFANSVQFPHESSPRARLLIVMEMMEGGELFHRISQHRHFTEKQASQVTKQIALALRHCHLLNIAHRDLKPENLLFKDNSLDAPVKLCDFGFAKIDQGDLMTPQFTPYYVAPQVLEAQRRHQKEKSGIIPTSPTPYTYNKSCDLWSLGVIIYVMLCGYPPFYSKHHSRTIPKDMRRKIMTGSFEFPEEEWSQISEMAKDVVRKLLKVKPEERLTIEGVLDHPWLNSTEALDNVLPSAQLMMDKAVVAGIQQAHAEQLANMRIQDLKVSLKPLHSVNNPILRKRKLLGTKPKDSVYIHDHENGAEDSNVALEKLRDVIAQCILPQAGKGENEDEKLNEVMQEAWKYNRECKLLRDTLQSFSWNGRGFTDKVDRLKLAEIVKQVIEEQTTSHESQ
Sequence of Receptor tyrosine-protein kinase erbB-4 (Homo sapiens) (Q15303 whole entry): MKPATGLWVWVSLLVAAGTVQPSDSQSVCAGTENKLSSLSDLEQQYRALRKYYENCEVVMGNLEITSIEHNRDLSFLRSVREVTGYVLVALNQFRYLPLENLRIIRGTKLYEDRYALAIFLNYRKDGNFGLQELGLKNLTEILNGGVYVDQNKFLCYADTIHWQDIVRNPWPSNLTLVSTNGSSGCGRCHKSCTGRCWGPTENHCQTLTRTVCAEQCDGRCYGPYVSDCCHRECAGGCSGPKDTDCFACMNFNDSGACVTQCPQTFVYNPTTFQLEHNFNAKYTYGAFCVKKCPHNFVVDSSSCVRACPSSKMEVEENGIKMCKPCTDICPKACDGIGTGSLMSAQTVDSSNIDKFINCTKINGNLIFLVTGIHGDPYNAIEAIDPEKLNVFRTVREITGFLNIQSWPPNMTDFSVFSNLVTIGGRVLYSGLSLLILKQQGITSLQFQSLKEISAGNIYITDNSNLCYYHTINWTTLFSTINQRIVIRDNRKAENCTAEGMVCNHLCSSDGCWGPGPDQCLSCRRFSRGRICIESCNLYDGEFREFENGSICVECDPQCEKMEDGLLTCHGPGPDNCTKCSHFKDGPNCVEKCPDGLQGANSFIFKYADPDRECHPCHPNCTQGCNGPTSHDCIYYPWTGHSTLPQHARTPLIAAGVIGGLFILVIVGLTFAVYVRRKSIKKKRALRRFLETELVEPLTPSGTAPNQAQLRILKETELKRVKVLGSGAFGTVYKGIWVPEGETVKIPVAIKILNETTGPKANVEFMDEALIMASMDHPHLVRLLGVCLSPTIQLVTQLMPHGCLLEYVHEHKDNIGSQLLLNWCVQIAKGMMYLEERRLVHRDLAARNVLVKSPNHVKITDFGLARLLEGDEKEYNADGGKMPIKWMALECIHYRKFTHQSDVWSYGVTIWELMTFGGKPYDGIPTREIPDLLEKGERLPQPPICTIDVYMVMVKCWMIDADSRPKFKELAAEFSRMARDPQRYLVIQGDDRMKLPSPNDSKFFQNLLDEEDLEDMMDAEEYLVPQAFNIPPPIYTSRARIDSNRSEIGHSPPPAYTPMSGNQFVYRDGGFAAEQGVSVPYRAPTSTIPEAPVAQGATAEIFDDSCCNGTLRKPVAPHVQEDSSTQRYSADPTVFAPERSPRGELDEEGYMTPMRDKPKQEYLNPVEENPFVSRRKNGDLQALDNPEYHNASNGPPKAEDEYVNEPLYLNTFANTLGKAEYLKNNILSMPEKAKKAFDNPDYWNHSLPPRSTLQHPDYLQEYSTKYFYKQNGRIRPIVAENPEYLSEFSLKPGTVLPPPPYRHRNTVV
Sequence of Serine/threonine-protein kinase 3 (Homo sapiens) (Q13188 whole entry): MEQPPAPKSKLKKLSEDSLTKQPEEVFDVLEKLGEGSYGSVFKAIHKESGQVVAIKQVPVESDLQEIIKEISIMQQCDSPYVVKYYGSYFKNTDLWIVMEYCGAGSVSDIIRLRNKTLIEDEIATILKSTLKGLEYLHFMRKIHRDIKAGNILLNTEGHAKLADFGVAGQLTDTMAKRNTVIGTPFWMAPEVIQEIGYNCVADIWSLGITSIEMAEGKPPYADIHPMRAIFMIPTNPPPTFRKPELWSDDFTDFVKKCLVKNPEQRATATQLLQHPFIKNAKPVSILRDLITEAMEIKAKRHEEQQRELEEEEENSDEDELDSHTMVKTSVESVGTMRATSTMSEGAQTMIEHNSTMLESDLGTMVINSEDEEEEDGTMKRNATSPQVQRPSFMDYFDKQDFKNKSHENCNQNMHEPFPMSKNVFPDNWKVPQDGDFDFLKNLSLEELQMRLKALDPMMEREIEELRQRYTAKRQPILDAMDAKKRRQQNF
Sequence of Serine/threonine-protein kinase D2 (Homo sapiens) (Q9BZL6 whole entry): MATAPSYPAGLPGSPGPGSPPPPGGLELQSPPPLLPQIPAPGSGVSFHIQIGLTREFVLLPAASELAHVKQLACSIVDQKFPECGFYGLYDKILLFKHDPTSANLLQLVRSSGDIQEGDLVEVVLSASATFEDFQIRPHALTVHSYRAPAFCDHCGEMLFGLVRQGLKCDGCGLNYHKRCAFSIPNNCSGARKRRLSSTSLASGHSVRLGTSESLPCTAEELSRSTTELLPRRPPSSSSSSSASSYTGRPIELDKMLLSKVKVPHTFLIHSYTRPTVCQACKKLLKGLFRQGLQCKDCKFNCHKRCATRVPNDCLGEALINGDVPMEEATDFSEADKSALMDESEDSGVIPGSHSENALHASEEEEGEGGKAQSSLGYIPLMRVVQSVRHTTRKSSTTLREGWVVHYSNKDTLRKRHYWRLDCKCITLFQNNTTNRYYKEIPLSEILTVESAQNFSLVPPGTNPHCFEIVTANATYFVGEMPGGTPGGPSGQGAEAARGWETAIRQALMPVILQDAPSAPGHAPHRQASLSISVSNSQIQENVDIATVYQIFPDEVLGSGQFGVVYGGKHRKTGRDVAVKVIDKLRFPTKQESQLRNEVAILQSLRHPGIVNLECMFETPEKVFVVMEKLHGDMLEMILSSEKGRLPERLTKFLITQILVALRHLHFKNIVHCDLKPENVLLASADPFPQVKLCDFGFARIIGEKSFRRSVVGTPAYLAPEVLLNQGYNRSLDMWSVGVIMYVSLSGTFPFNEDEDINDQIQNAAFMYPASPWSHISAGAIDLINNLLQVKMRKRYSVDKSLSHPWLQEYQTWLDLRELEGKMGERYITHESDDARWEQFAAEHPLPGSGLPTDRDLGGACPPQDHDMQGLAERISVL
Sequence of Serine/threonine-protein kinase N2 (Homo sapiens) (Q16513 whole entry, looked up): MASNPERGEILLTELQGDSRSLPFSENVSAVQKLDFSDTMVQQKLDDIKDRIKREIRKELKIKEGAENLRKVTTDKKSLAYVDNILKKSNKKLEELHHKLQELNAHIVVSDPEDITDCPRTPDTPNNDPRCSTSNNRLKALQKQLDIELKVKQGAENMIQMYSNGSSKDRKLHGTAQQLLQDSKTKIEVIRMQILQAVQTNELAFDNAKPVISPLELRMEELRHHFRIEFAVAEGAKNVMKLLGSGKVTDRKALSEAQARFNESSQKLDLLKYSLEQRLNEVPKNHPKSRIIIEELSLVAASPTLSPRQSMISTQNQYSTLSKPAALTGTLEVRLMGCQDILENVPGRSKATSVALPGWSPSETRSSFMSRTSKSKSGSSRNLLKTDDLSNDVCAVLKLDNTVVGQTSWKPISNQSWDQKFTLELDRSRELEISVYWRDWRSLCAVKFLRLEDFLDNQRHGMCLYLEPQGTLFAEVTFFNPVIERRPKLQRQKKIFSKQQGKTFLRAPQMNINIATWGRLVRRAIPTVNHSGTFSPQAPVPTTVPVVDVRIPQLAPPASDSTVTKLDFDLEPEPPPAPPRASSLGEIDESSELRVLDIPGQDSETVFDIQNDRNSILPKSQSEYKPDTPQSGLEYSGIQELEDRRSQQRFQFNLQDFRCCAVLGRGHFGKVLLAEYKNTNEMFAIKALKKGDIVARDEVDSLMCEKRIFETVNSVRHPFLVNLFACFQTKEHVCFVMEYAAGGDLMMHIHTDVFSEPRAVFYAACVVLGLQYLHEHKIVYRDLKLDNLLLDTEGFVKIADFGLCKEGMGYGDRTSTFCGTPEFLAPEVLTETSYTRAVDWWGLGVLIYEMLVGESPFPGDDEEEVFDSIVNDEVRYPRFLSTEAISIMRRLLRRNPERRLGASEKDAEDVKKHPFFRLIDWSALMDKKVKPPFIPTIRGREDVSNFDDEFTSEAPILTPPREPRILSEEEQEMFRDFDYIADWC
Sequence of Serine/threonine-protein kinase N1 (Homo sapiens) (Q16512 2-942 limits assumed): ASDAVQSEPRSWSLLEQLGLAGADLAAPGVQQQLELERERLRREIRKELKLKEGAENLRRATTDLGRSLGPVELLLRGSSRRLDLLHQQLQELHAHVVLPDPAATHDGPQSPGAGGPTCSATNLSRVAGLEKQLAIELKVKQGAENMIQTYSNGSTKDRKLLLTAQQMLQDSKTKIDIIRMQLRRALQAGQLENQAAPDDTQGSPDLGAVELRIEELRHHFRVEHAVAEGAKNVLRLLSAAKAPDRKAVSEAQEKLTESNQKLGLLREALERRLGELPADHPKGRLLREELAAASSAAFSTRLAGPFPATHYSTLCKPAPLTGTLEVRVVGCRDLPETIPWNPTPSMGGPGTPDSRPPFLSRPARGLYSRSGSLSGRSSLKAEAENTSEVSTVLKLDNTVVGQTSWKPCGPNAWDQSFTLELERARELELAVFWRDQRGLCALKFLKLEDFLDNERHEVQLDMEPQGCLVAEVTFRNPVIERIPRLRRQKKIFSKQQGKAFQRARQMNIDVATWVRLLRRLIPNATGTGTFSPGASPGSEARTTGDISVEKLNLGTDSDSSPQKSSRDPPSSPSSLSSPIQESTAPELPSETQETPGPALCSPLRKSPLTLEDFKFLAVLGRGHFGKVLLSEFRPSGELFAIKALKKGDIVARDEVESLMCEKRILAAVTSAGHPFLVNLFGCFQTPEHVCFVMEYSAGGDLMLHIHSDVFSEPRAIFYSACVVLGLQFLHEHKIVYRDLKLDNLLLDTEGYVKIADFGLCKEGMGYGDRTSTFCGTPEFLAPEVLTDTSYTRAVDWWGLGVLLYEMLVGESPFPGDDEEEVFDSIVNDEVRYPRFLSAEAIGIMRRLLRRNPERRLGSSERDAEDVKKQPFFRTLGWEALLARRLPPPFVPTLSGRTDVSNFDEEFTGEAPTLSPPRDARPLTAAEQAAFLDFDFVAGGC

O=C1c2ccc(Nc3ccc(F)cc3F)cc2CCc2ccc(OC[C@H](O)CO)cc21 [Skepinone-L]
Activity [1]: 61%
Activity [2]: 100%
Activity [3]: 100%
Activity [4]: 100%
Activity [5]: 91%
Activity [6]: 100%
Activity [7]: 100%
Activity [8]: 99%
Activity [9]: 107%
Activity [10]: 135%
Activity [11]: 98%
Activity [12]: 100%
Activity [13]: 119%
Activity [14]: 106%
Activity [15]: 98%
Activity [16]: 98%
Activity [17]: 97%
Activity [18]: 95%
Activity [19]: 85%
Activity [20]: 103%
Activity [21]: 91%
inhibition at 10 µM (CYP3A4): 34%
